Experimental data published in US20260209152A1, “Substituted Hydroxystilbene Compounds and Derivatives, Synthesis and Uses Thereof” (Kynan Duke IP, LLC, priority 2019, published 2026).
Where two headings read alike, the source gives them in different places.

How the values were obtained:
Test in all cases: CellTiter Glo cell viability assay
Format in all cases: cell-based, human
[1] = test system: Lung NCI-H1299; settings: for IC50: Homo sapiens, NCI-H1299, 72 h, 18 2-fold dilutions 5-0.00003 μM
Outline: (§1)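 Cells seeded at 1.7*10^3/well in quadruplicate; compounds at 18 two-fold dilutions from 5 μM (0.000038146-5 μM), or at 1, 2, 5, 10 and 20 μM. CellTiter Glo luminescence read on days 1, 3 and 5 after treatment. IC50 by nonlinear regression of luminescence versus log dose.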

[2] = test system: Osteosarcomas KHOS_312H; settings: for IC50: Homo sapiens, 72 h, 3 Days of treatment, 18 2-fold dilutions 5-0.00003 μM
Outline: as §1

[3] = test system: Bladder SW780; settings: for IC50: Homo sapiens, SW780, 72 h, 3 Days of treatment, 18 2-fold dilutions 5-0.00003 μM
Outline: as §1

[4] = test system: Liver Huh7; settings: for IC50: Homo sapiens, Huh-7, 72 h, 3 Days of treatment, 18 2-fold dilutions 5-0.00003 μM
Outline: as §1

[5] = test system: Lung NCI-H596; settings: for IC50: Homo sapiens, NCI-H596, 72 h, 3 Days of treatment, 18 2-fold dilutions 5-0.00003 μM
Outline: as §1

[6] = test system: Tongue SCC-9; settings: for IC50: Homo sapiens, SCC-9, 72 h, 3 Days of treatment, 18 2-fold dilutions 5-0.00003 μM
Outline: as §1

[7] = test system: Tongue SCC-15; settings: for IC50: Homo sapiens, SCC-15, 72 h, 3 Days of treatment, 18 2-fold dilutions 5-0.00003 μM
Outline: as §1

[8] = test system: Breast MDA-MB-231; settings: for IC50: Homo sapiens
Outline: as §1

[9] = test system: Bladder J82; settings: for IC50: Homo sapiens, 72 h, 3 Days of treatment, 18 2-fold dilutions 5-0.00003 μM
Outline: as §1

[10] = test system: Kidney 786-O; settings: for IC50: Homo sapiens, 786-0, 72 h, 3 Days of treatment, 18 2-fold dilutions 5-0.00003 μM
Outline: as §1

[11] = test system: Liver JHH-7; settings: for IC50: Homo sapiens, JHH7, 72 h, 3 Days of treatment, 18 2-fold dilutions 5-0.00003 μM
Outline: as §1

[12] = test system: Osteosarcomas Hs888.T; settings: for IC50: Homo sapiens, 72 h, 3 Days of treatment, 18 2-fold dilutions 5-0.00003 μM
Outline: as §1

[13] = test system: Bladder 5637; settings: for IC50: Homo sapiens
Outline: as §1

[14] = test system: Rhabomyosarcoma Hs 729; settings: for IC50: Homo sapiens, 72 h, 3 Days of treatment, 18 2-fold dilutions 5-0.00003 μM
Outline: as §1

[15] = test system: Bladder TCCSUP; settings: for IC50: Homo sapiens, TCC-SUP, 72 h, 3 Days of treatment, 18 2-fold dilutions 5-0.00003 μM
Outline: as §1

[16] = test system: Fibrosarcomas SW 684; settings: for IC50: Homo sapiens, SW684, 72 h, 3 Days of treatment, 18 2-fold dilutions 5-0.00003 μM
Outline: as §1

[17] = test system: Osteosarcomas U2OS; settings: for IC50: Homo sapiens, U2OS, 72 h, 3 Days of treatment, 18 2-fold dilutions 5-0.00003 μM
Outline: as §1

[18] = test system: Liposarcoma 93T449; settings: for IC50: Homo sapiens, 72 h, 3 Days of treatment, 18 2-fold dilutions 5-0.00003 μM
Outline: as §1

[19] = test system: Lung BEAS-2B; settings: for IC50: Homo sapiens, BEAS-2B, 72 h, 3 Days of treatment, 18 2-fold dilutions 5-0.00003 μM
Outline: as §1

[20] = test system: Osteosarcomas HOS_CRL_1543; settings: for IC50: Homo sapiens, 72 h, 3 Days of treatment, 18 2-fold dilutions 5-0.00003 μM
Outline: as §1

[21] = test system: Kidney SK-NEP-1; settings: for IC50: Homo sapiens, SK-NEP-1, 72 h, 3 Days of treatment, 18 2-fold dilutions 5-0.00003 μM
Outline: as §1

[22] = test system: Lung A549; settings: for IC50: Homo sapiens, A549, 72 h, 3 Days of treatment, 18 2-fold dilutions 5-0.00003 μM
Outline: as §1

[23] = test system: Leiomyosarcoma SK-LMS-1; settings: for IC50: Homo sapiens, SK-LMS-1, 72 h, 3 Days of treatment, 18 2-fold dilutions 5-0.00003 μM
Outline: as §1

[24] = 3 Days of treatment, read-out: Average IC50
[25] = Table 4: 3 Days of treatment, Average (1, 8) or single Exp A-D, read-out: IC50
[26] = MDA-MB-231, 72 h, 3 Days of treatment, 18 2-fold dilutions 5-0.00003 μM, read-out: Average IC50
[27] = MDA-MB-231, 120 h, Day 5 upon drug treatment, 10 dosages 0.0001-20 μM (Compound 8: 18 dosages 0.000038146 to 5 μM), read-out: IC50
[28] = 72 h, 3 Days of treatment, 18 2-fold dilutions 5-0.00003 μM, read-out: Average IC50
[29] = 120 h, Day 5 upon drug treatment, 10 dosages 0.0001-20 μM (Compound 8: 18 dosages 0.000038146 to 5 μM), read-out: IC50
[30] = IC50 of 1 [KYN-001] vs 8 [KYN-119], 3 Days

Work on `COc1cc(/C=C/c2cc(O)cc(OC)c2CC=C(C)C)ccc1O` [Compound 1, (E)-3-(4-hydroxy-3-methoxystyryl)-5-methoxy-4-(3-methylbut-2-en-1-yl)phenol] yielded an IC50 [1, 24] of 62.4 nM, an IC50 [1, 25] of 64.2 nM and an IC50 [2] of 356 nM. The IC50 [3] was 712 nM, the IC50 [4] was 78.9 nM and the IC50 [5] was 303 nM. It also gave an IC50 [6] of 181 nM, an IC50 [7] of 17 nM and an IC50 [8, 26] of 32.6 nM. For the same molecule, the IC50 ([8]; MDA-MB-231, 72 h, Day 3 upon drug treatment, 10 dosages 0.0001-20 μM, read-out: IC50) was 29.3 nM, the IC50 [8, 27] was 57.3 nM and the IC50 [9] was 184 nM. For the same molecule, the IC50 [10] was 334 nM, the IC50 [11] was 696 nM and the IC50 [12] was 210 nM. It also gave an IC50 [13, 28] of 34.7 nM, an IC50 [13, 29] of 30.6 nM and an IC50 [14] of 383 nM. It also gave an IC50 [15] of 294 nM, an IC50 [16] of 55.2 nM and an IC50 [17] of 325 nM. For the same molecule, the IC50 [18] was 55.5 nM, the IC50 [19] was 76.4 nM and the IC50 [20] was 358 nM. For the same molecule, the IC50 [21] was 158 nM, the IC50 [22] was 163 nM and the IC50 [23] was 65.9 nM.
With `CCOc1cc(O)cc(/C=C/c2ccc(O)c(OC)c2)c1CC=C(C)C` [Compound 8, (E)-3-Ethoxy-5-(4-hydroxy-3-methoxystyryl)-4-(3-methylbut-2-en-1-yl)phenol] the IC50 [1, 24] was 8.56 nM, the IC50 [1, 25] was 8.56 nM and the “Fold IC50” value [1, 30] was 7.3. For the same molecule, the IC50 [2] was 36.7 nM, the “Fold IC50” value [2, 30] was 9.7 and the IC50 [3] was 217 nM. For the same molecule, the “Fold IC50” value [3, 30] was 3.3, the IC50 [4] was 20.6 nM and the “Fold IC50” value [4, 30] was 3.8. The IC50 [5] was 115 nM, the “Fold IC50” value [5, 30] was 2.6 and the IC50 [6] was 75.5 nM. The “Fold IC50” value [6, 30] was 2.4, the IC50 [7] was 14.9 nM and the “Fold IC50” value [7, 30] was 1.1. The IC50 [8, 26] was 8.48 nM, the IC50 [8, 27] was roughly 0.00253 nM and the “Fold IC50” value [8, 30] was 3.8. For the same molecule, the IC50 [9] was 46.5 nM, the “Fold IC50” value [9, 30] was 4.0 and the IC50 [10] was 64.8 nM. The “Fold IC50” value [10, 30] was 5.1, the IC50 [11] was 519 nM and the “Fold IC50” value [11, 30] was 1.3. The IC50 [12] was 26.1 nM, the “Fold IC50” value [12, 30] was 8.1 and the IC50 [13, 28] was 3.91 nM. For the same molecule, the IC50 [13, 29] was roughly 9.43 nM, the “Fold IC50” value [13, 30] was 8.9 and the IC50 [14] was 64.9 nM. The “Fold IC50” value [14, 30] was 5.9, the IC50 [15] was 112 nM and the “Fold IC50” value [15, 30] was 2.6. For the same molecule, the IC50 [16] was 4.63 nM, the “Fold IC50” value [16, 30] was “.12” and the IC50 [17] was 36.8 nM. For the same molecule, the “Fold IC50” value [17, 30] was 8.8, the IC50 [18] was 15.1 nM and the “Fold IC50” value [18, 30] was 3.7. The IC50 [19] was 15 nM, the “Fold IC50” value [19, 30] was 5.1 and the IC50 [20] was 32 nM. For the same molecule, the “Fold IC50” value [20, 30] was 11, the IC50 [21] was 17.8 nM and the “Fold IC50” value [21, 30] was 8.9. The IC50 [22] was 30.9 nM, the “Fold IC50” value [22, 30] was 5.3 and the IC50 [23] was 17.5 nM. For the same molecule, the “Fold IC50” value [23, 30] was 3.8.
